Experimental data published in the supplement of paper PMC10307832.

Columns and labels:
Test in all cases: relative viability (nuclei count vs DMSO), 5 days (fraction); higher = more cells survive
BEN = tested on: BEN
In short: (§1)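 Relative viability is defined as nuclei in treated wells over nuclei in vehicle wells. Duplicate plates were run and medians reported. Lung cancer cell lines in 1536-well plates were dosed by pin tool one day after seeding, with one drug or with a fixed anchor-drug dose plus five library-drug doses (not always all listed) in √10 steps, and nuclei were counted after 5 days.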

ChaGo-K-1 = tested on: ChaGo-K-1
In short: as §1

HCC-15 = tested on: HCC-15
In short: as §1

HCC-78 = tested on: HCC-78
In short: as §1

LC-2-ad = tested on: LC-2-ad
In short: as §1

LCLC-97TM1 = tested on: LCLC-97TM1
In short: as §1

LK-2 = tested on: LK-2
In short: as §1

LU99A = tested on: LU99A
In short: as §1

LXF-289 = tested on: LXF-289
In short: as §1

NCI-H1651 = tested on: NCI-H1651
In short: as §1

NCI-H1666 = tested on: NCI-H1666
In short: as §1

NCI-H1944 = tested on: NCI-H1944
In short: as §1

NCI-H2087 = tested on: NCI-H2087
In short: as §1

NCI-H2342 = tested on: NCI-H2342
In short: as §1

NCI-H322M = tested on: NCI-H322M
In short: as §1

NCI-H358 = tested on: NCI-H358
In short: as §1

NCI-H650 = tested on: NCI-H650
In short: as §1

NCI-H661 = tested on: NCI-H661
In short: as §1

NCI-H838 = tested on: NCI-H838
In short: as §1

PC-3 [JPC-3] = tested on: PC-3 [JPC-3]
In short: as §1

SK-MES-1 = tested on: SK-MES-1
In short: as §1

UMC-11 = tested on: UMC-11
In short: as §1

For `NC(=O)Nc1cc(-c2cccc(F)c2)sc1C(=O)N[C@H]1CCCNC1` [AZD7762] + CC(=O)c1c(C)c2cnc(Nc3ccc(N4CCNCC4)cn3)nc2n(C2CCCC2)c1=O [Palbociclib] (partner 0.5 µM), the relative viability (BEN; first compound 0.01 µM) was 0.476, the relative viability (BEN; first compound 0.03162 µM) was 0.483 and the relative viability (BEN; first compound 0.1 µM) was 0.436. The relative viability (BEN; first compound 0.3162 µM) was 0.422, the relative viability (BEN; first compound 1 µM) was 0.366 and the relative viability (ChaGo-K-1; first compound 0.01 µM) was 1.01. The relative viability (ChaGo-K-1; first compound 0.03162 µM) was 0.953, the relative viability (ChaGo-K-1; first compound 0.1 µM) was 0.958 and the relative viability (ChaGo-K-1; first compound 0.3162 µM) was 0.932. The relative viability (ChaGo-K-1; first compound 1 µM) was 1.03, the relative viability (HCC-15; first compound 0.01 µM) was 0.74 and the relative viability (HCC-15; first compound 0.03162 µM) was 0.738. For the same compound, the relative viability (HCC-15; first compound 0.1 µM) was 0.802, the relative viability (HCC-15; first compound 0.3162 µM) was 0.676 and the relative viability (HCC-15; first compound 1 µM) was 0.718. It also gave a relative viability (HCC-78; first compound 0.01 µM) of 0.444, a relative viability (HCC-78; first compound 0.03162 µM) of 0.461 and a relative viability (HCC-78; first compound 0.1 µM) of 0.444. The relative viability (HCC-78; first compound 0.3162 µM) was 0.518, the relative viability (HCC-78; first compound 1 µM) was 0.454 and the relative viability (LC-2-ad; first compound 0.01 µM) was 0.499. For the same compound, the relative viability (LC-2-ad; first compound 0.03162 µM) was 0.521, the relative viability (LC-2-ad; first compound 0.1 µM) was 0.463 and the relative viability (LC-2-ad; first compound 0.3162 µM) was 0.365. For the same compound, the relative viability (LC-2-ad; first compound 1 µM) was 0.367, the relative viability (LCLC-97TM1; first compound 0.01 µM) was 0.214 and the relative viability (LCLC-97TM1; first compound 0.03162 µM) was 0.221. For the same compound, the relative viability (LCLC-97TM1; first compound 0.1 µM) was 0.253, the relative viability (LCLC-97TM1; first compound 0.3162 µM) was 0.28 and the relative viability (LCLC-97TM1; first compound 1 µM) was 0.274. The relative viability (LK-2; first compound 0.01 µM) was 0.6, the relative viability (LK-2; first compound 0.03162 µM) was 0.779 and the relative viability (LK-2; first compound 0.1 µM) was 0.742. It also gave a relative viability (LK-2; first compound 0.3162 µM) of 0.612, a relative viability (LK-2; first compound 1 µM) of 0.572 and a relative viability (LU99A; first compound 0.01 µM) of 0.469. For the same compound, the relative viability (LU99A; first compound 0.03162 µM) was 0.427, the relative viability (LU99A; first compound 0.1 µM) was 0.438 and the relative viability (LU99A; first compound 0.3162 µM) was 0.408. It also gave a relative viability (LU99A; first compound 1 µM) of 0.354, a relative viability (LXF-289; first compound 0.01 µM) of 0.569 and a relative viability (LXF-289; first compound 0.03162 µM) of 0.689. The relative viability (LXF-289; first compound 0.1 µM) was 0.628, the relative viability (LXF-289; first compound 0.3162 µM) was 0.679 and the relative viability (LXF-289; first compound 1 µM) was 0.668. For the same compound, the relative viability (NCI-H1651; first compound 0.01 µM) was 0.574, the relative viability (NCI-H1651; first compound 0.03162 µM) was 0.525 and the relative viability (NCI-H1651; first compound 0.1 µM) was 0.556. For the same compound, the relative viability (NCI-H1651; first compound 0.3162 µM) was 0.558, the relative viability (NCI-H1651; first compound 1 µM) was 0.501 and the relative viability (NCI-H1666; first compound 0.01 µM) was 0.609. The relative viability (NCI-H1666; first compound 0.03162 µM) was 0.728, the relative viability (NCI-H1666; first compound 0.1 µM) was 0.701 and the relative viability (NCI-H1666; first compound 0.3162 µM) was 0.565. It also gave a relative viability (NCI-H1666; first compound 1 µM) of 0.65, a relative viability (NCI-H1944; first compound 0.01 µM) of 0.383 and a relative viability (NCI-H1944; first compound 0.03162 µM) of 0.382. For the same compound, the relative viability (NCI-H1944; first compound 0.1 µM) was 0.409, the relative viability (NCI-H1944; first compound 0.3162 µM) was 0.402 and the relative viability (NCI-H1944; first compound 1 µM) was 0.359. For the same compound, the relative viability (NCI-H2087; first compound 0.01 µM) was 0.213, the relative viability (NCI-H2087; first compound 0.03162 µM) was 0.298 and the relative viability (NCI-H2087; first compound 0.1 µM) was 0.243. For the same compound, the relative viability (NCI-H2087; first compound 0.3162 µM) was 0.274, the relative viability (NCI-H2087; first compound 1 µM) was 0.317 and the relative viability (NCI-H2342; first compound 0.01 µM) was 0.492. For the same compound, the relative viability (NCI-H2342; first compound 0.03162 µM) was 0.513, the relative viability (NCI-H2342; first compound 0.1 µM) was 0.447 and the relative viability (NCI-H2342; first compound 0.3162 µM) was 0.483. The relative viability (NCI-H2342; first compound 1 µM) was 0.505, the relative viability (NCI-H322M; first compound 0.01 µM) was 0.477 and the relative viability (NCI-H322M; first compound 0.03162 µM) was 0.517. It also gave a relative viability (NCI-H322M; first compound 0.1 µM) of 0.465, a relative viability (NCI-H322M; first compound 0.3162 µM) of 0.523 and a relative viability (NCI-H322M; first compound 1 µM) of 0.441. The relative viability (NCI-H358; first compound 0.01 µM) was 0.182, the relative viability (NCI-H358; first compound 0.03162 µM) was 0.141 and the relative viability (NCI-H358; first compound 0.1 µM) was 0.111. For the same compound, the relative viability (NCI-H358; first compound 0.3162 µM) was 0.105, the relative viability (NCI-H358; first compound 1 µM) was 0.0964 and the relative viability (NCI-H650; first compound 0.01 µM) was 0.377. It also gave a relative viability (NCI-H650; first compound 0.03162 µM) of 0.374, a relative viability (NCI-H650; first compound 0.1 µM) of 0.403 and a relative viability (NCI-H650; first compound 0.3162 µM) of 0.38. The relative viability (NCI-H650; first compound 1 µM) was 0.382, the relative viability (NCI-H661; first compound 0.01 µM) was 0.447 and the relative viability (NCI-H661; first compound 0.03162 µM) was 0.456. For the same compound, the relative viability (NCI-H661; first compound 0.1 µM) was 0.497, the relative viability (NCI-H661; first compound 0.3162 µM) was 0.461 and the relative viability (NCI-H661; first compound 1 µM) was 0.344. The relative viability (NCI-H838; first compound 0.01 µM) was 0.27, the relative viability (NCI-H838; first compound 0.03162 µM) was 0.198 and the relative viability (NCI-H838; first compound 0.1 µM) was 0.243. It also gave a relative viability (NCI-H838; first compound 0.3162 µM) of 0.221, a relative viability (NCI-H838; first compound 1 µM) of 0.221 and a relative viability (PC-3 [JPC-3]; first compound 0.01 µM) of 0.558. For the same compound, the relative viability (PC-3 [JPC-3]; first compound 0.03162 µM) was 0.541, the relative viability (PC-3 [JPC-3]; first compound 0.1 µM) was 0.537 and the relative viability (PC-3 [JPC-3]; first compound 0.3162 µM) was 0.538. The relative viability (PC-3 [JPC-3]; first compound 1 µM) was 0.504, the relative viability (SK-MES-1; first compound 0.01 µM) was 0.339 and the relative viability (SK-MES-1; first compound 0.03162 µM) was 0.337. The relative viability (SK-MES-1; first compound 0.1 µM) was 0.328, the relative viability (SK-MES-1; first compound 0.3162 µM) was 0.279 and the relative viability (SK-MES-1; first compound 1 µM) was 0.2. The relative viability (UMC-11; first compound 0.01 µM) was 0.373, the relative viability (UMC-11; first compound 0.03162 µM) was 0.302 and the relative viability (UMC-11; first compound 0.1 µM) was 0.34. It also gave a relative viability (UMC-11; first compound 0.3162 µM) of 0.301 and a relative viability (UMC-11; first compound 1 µM) of 0.231.
